# Measured values taken from publication PMC5769128, “Human UDP-Glucuronosyltransferase 2B4 and 2B7 Are Responsible for Naftopidil Glucuronidation in Vitro” (Frontiers in Pharmacology, 2018).
# What was measured:
# Settings in all cases: 10 μM substrate, 45 min
# [1] = test system: UGT1A1, 1A4, 1A3, 2B17, 1A8, 2B15, and 1A7; assay: UGT reaction screening of R(+)-NAF, minor isoforms; type: in vitro ADME, human
# [2] = test system: UGT1A4, 1A3, 2B17, 2B15, 1A9, 1A8, and 1A7; assay: UGT reaction screening of S(-)-NAF, minor isoforms; type: in vitro ADME, human
# [3] = target: T1, recombinant human UGT2B4 (Homo sapiens, UniProt P06133); assay: UGT reaction screening of NAF enantiomers, UGT2B4; type: in vitro ADME
# T1 construct: purchased BD Gentest
# T1 sequence (P06133 24-528): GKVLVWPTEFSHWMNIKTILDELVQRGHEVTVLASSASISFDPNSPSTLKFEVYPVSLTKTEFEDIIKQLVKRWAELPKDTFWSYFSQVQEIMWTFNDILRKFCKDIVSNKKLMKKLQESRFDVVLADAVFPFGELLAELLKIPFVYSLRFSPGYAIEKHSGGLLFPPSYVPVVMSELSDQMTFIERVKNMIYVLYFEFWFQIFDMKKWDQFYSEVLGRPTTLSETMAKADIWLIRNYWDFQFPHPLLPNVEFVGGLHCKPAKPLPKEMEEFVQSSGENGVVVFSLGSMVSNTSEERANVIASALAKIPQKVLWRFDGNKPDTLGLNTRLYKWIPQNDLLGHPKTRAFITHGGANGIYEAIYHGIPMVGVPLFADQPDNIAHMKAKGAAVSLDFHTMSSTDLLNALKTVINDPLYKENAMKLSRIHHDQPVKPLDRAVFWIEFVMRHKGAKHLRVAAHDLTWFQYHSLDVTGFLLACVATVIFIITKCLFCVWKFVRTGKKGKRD
Glucuronidation activity of UGT2B4 compared with UGT2B7 [3],SMILES,"Glucuronidation activity, times lower than UGT2B7 [1]",Glucuronidation activity [2]
–,COc1ccccc1N1CCN(C[C@@H](O)COc2cccc3ccccc23)CC1 [R(+)-NAF],more than 10 times,–
relatively higher activity than UGT2B7,COc1ccccc1N1CCN(C[C@H](O)COc2cccc3ccccc23)CC1 [S(-)-NAF],–,a small amount of activity
